Source: PubChem BioAssay (NCI)
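Grown in 96-well plates, cells were treated for 48 hours with each compound at five concentrations. Insufficient inhibition: endpoint recorded as highest concentration tested. At the GI50, growth is halved. TGI marks complete inhibition of growth.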

How the values were obtained:
Experiment in all cases: NCI-60 cell line screen, 48 h
HOP-18 NSCLC = system: HOP-18 NSCLC
PC-3 prostate = system: PC-3 prostate
HCT-15 colon = system: HCT-15 colon
MDA-MB-435 = system: MDA-MB-435
MOLT-4 leukemia = system: MOLT-4 leukemia
CAKI-1 renal = system: CAKI-1 renal
RXF 393 renal = system: RXF 393 renal
DLD-1 colon = system: DLD-1 colon
OVCAR-3 ovarian = system: OVCAR-3 ovarian
LXFL 529 NSCLC = system: LXFL 529 NSCLC
SK-MEL-5 melanoma = system: SK-MEL-5 melanoma
OVCAR-5 ovarian = system: OVCAR-5 ovarian
HL-60(TB) leukemia = system: HL-60(TB) leukemia
MDA-MB-231 breast = system: MDA-MB-231 breast
HCT-116 colon = system: HCT-116 colon
MCF7 breast = system: MCF7 breast
HOP-92 NSCLC = system: HOP-92 NSCLC
IGROV1 ovarian = system: IGROV1 ovarian

## C[CH2][Sn]([CH2]C)([O]C(=O)c1cccc(OC)c1)[O][Sn]([CH2]C)([CH2]C)[O]C(=O)c1cccc(OC)c1
HOP-18 NSCLC
  GI50: 15.9 µM
  TGI: 29.3 µM
PC-3 prostate
  GI50: > 100 µM
  TGI: > 100 µM
HCT-15 colon
  GI50: 17.4 µM
  TGI: 35.4 µM
MDA-MB-435
  GI50: 18.8 µM
  TGI: 42.4 µM
MOLT-4 leukemia
  GI50: 27.9 µM
  TGI: > 72.4 µM
CAKI-1 renal
  GI50: 11.8 µM
  TGI: 24.3 µM
RXF 393 renal
  GI50: 15 µM
  TGI: 28.4 µM
DLD-1 colon
  GI50: 14.3 µM
  TGI: 29.6 µM
OVCAR-3 ovarian
  GI50: 58 µM
  TGI: > 100 µM
LXFL 529 NSCLC
  GI50: 10.1 µM
  TGI: 21.7 µM
SK-MEL-5 melanoma
  GI50: 42.9 µM
  TGI: > 64 µM
OVCAR-5 ovarian
  GI50: 27 µM
  TGI: > 61.6 µM
HL-60(TB) leukemia
  GI50: 19.2 µM
  TGI: 70.9 µM
MDA-MB-231 breast
  GI50: 16 µM
  TGI: 33.5 µM
HCT-116 colon
  GI50: > 43.2 µM
  TGI: > 58.8 µM
MCF7 breast
  GI50: 10.1 µM
  TGI: 26.6 µM
HOP-92 NSCLC
  GI50: 15 µM
  TGI: 29.8 µM
IGROV1 ovarian
  GI50: > 100 µM
  TGI: > 100 µM
